Assay [1] has as its system rabbit eye. As to the kind of experiment: Reduction in intraocular pressure following topical ocular (corneal) insulin administration, rabbit. Particulars: repeated small volume applications on upper third of the cornea. Type of assay: in vivo. The method, then: (§1) Several Insulin preparations were administered to the cornea of rats and rabbits by repeated small volume applications on the upper third of the cornea with necessary measures to minimize conjunctival absorption and drainage to the nasal cavity. Reductions in intraocular pressure ranged from 28% to 36.5% in the rabbit eye and 22% to 29% in the rat eye.

The test system of assay [2] is rat eye. As to the kind of experiment: Reduction in intraocular pressure following topical ocular (corneal) insulin administration, rat. Type of assay: in vivo. Particulars: repeated small volume applications on upper third of the cornea. As to the method:
as §1

Assay [3] concerns filtering bleb. As to the kind of experiment: Success rate of filtering bleb after trabeculectomy. Type of assay: in vivo, rabbit. Particulars: rabbits after trabeculectomy; daily injections to the filtering bleb. As to the method:
15 rabbits underwent trabeculectomy. Five rabbits were treated with daily insulin injections to the filtering bleb, 5 others received denaturized insulin and another 5 rabbits received same volume and same frequency of balanced salt solution. The results of successful blebs at month 4 were 4 out of 5 for the insulin group, and 2 out of 5 and 3 out of 5 for the denaturized insulin and the balanced salt solution respectively.

The subject of assay [4] is diabetic patients. Description: Systemic insulin and intraocular pressure in humans. Type of assay: in vivo, human. An excerpt: Recently there is a growing worldwide trend towards appreciating the merits of insulin in the treatment of diabetic patients. Contrary to the previous practice, patient are encouraged now to switch from oral hypoglycemic treatment to insulin treatment, or even to start therapy with insulin without a period of therapy with the oral hypoglycemic agents. Twelve diabetic patients were scheduled to start insulin therapy. […] None of them had been found with diabetic retinopathy or glaucoma. The drug prescription history was reviewed, and none of the twelve patients was found with systemic therapy that can affect the intraocular pressure measurements. So far, none of them was switched to systemic therapy with drugs that can affect the intraocular pressure. Pachymetry measurements have shown stability, without correlation with the level of intraocular pressure. There was also no correlation between blood glucose levels and the intraocular pressure. The patients were followed at 2 weeks interval in first months and then once every 3 weeks. […] After 2 months reduction in intraocular pressure was higher than 15% from baseline in all cases. At the end of 3 months the reduction in intraocular pressure for all patients ranged from 24% up to 35% from baseline. This level of intraocular pressure reduction was maintained during the follow up until now.

Consider “denaturized insulin: similar insulin preparation that was denaturized, used as control”, for which the “reduction in intraocular pressure” value in assay [1] and in assay [2] was “no stastistically significant change” in each case. In addition, the “successful blebs at month 4” value in assay [3] was 2 out of 5.
In the case of insulin, the “intraocular pressure versus baseline” value in assay [4] (1 month after starting insulin therapy, twelve diabetic patients) is listed as “significantly lower than baseline values only in 5 patients”. Moreover, in assay [4] (after 2 months of insulin therapy, all cases), the “reduction in intraocular pressure from baseline” value is “higher than 15%”. Besides, the “successful blebs at month 4” value in assay [3] was 4 out of 5.

The values above are taken from patent US20100310637A1, “COMPOSITION AND METHOD FOR THE TREATMENT OR PREVENTION OF GLAUCOMA AND OCULAR HYPERTENSION” (priority 2007, published 2010).
